# Measurements: the NIST ThermoML archive (doi:10.1021/je200124h)
# Numbers after ± are expanded uncertainties.
# Experiments:
# [1] = wn = mass fraction of the nth substance listed; conditions: for surface tension liquid-gas: Ring tensiometer; for viscosity / mass density: Liquid; for mass density: Pycnometric method
# [2] = for surface tension liquid-gas: Ring tensiometer; for viscosity / mass density: 101.33 kPa, Liquid; for viscosity: Capillary tube (Ostwald / Ubbelohde) method; for mass density: Pycnometric method
smiles,measurement,setting,value
CC(O)CNCC(C)O (configuration not stated) [N-(2-hydroxypropyl)-2-hydroxy-1-propanamine] + O,surface tension liquid-gas,"[1]; 303.15 K, w1 = 0.3873",45.3 ± 0.7 mN/m
same,viscosity,"[1]; 303.15 K, 101 kPa, w1 = 0.3873",5.42 ± 0.13 mPa·s
same,mass density,"[1]; 303.15 K, 101.3 kPa, w1 = 0.3873",1016 ± 1.6 kg/m3
same,surface tension liquid-gas,"[1]; 313.15 K, w1 = 0.3873",44.4 ± 0.7 mN/m
same,viscosity,"[1]; 313.15 K, 101 kPa, w1 = 0.3873",3.74 ± 0.1 mPa·s
same,mass density,"[1]; 313.15 K, 101.3 kPa, w1 = 0.3873",1012 ± 1.6 kg/m3
same,surface tension liquid-gas,"[1]; 323.15 K, w1 = 0.3873",43.2 ± 0.8 mN/m
same,viscosity,"[1]; 323.15 K, 101 kPa, w1 = 0.3873",2.56 ± 0.08 mPa·s
same,mass density,"[1]; 323.15 K, 101.3 kPa, w1 = 0.3873",1006 ± 1.6 kg/m3
same,surface tension liquid-gas,"[1]; 333.15 K, w1 = 0.3873",42.1 ± 0.6 mN/m
same,viscosity,"[1]; 333.15 K, 101 kPa, w1 = 0.3873",1.88 ± 0.082 mPa·s
same,mass density,"[1]; 333.15 K, 101.3 kPa, w1 = 0.3873",1000 ± 1.9 kg/m3
same,surface tension liquid-gas,"[1]; 343.15 K, w1 = 0.3873",40.5 ± 0.6 mN/m
same,viscosity,"[1]; 343.15 K, 101 kPa, w1 = 0.3873",1.42 ± 0.037 mPa·s
same,mass density,"[1]; 343.15 K, 101.3 kPa, w1 = 0.3873",994.5 ± 1.6 kg/m3
C1CNCCN1 [piperazine] + O,surface tension liquid-gas,"[1]; 303.15 K, w1 = 0.0516",69.56 ± 0.95 mN/m
same,mass density,"[1]; 303.15 K, 101 kPa, w1 = 0.0516",998.34 ± 1.5 kg/m3
same,viscosity,"[1]; 303.15 K, 101 kPa, w1 = 0.0516",0.959 ± 0.025 mPa·s
same,surface tension liquid-gas,"[1]; 313.15 K, w1 = 0.0516",67.98 ± 0.93 mN/m
same,mass density,"[1]; 313.15 K, 101 kPa, w1 = 0.0516",993.9 ± 1.5 kg/m3
same,viscosity,"[1]; 313.15 K, 101 kPa, w1 = 0.0516",0.775 ± 0.021 mPa·s
same,surface tension liquid-gas,"[1]; 323.15 K, w1 = 0.0516",66.49 ± 0.91 mN/m
same,mass density,"[1]; 323.15 K, 101 kPa, w1 = 0.0516",989.79 ± 1.5 kg/m3
same,viscosity,"[1]; 323.15 K, 101 kPa, w1 = 0.0516",0.641 ± 0.018 mPa·s
same,surface tension liquid-gas,"[1]; 333.15 K, w1 = 0.0516",65.17 ± 0.89 mN/m
same,mass density,"[1]; 333.15 K, 101 kPa, w1 = 0.0516",985.1 ± 1.5 kg/m3
same,viscosity,"[1]; 333.15 K, 101 kPa, w1 = 0.0516",0.542 ± 0.015 mPa·s
O=S1(=O)CCCC1 [sulfolane],surface tension liquid-gas,[2]; 303.15 K,47.95 ± 0.71 mN/m
same,viscosity,[2]; 303.15 K,10.18 ± 0.25 mPa·s
same,mass density,[2]; 303.15 K,1262.3 ± 2 kg/m3
same,surface tension liquid-gas,[2]; 313.15 K,47.22 ± 0.7 mN/m
same,viscosity,[2]; 313.15 K,7.85 ± 0.2 mPa·s
same,mass density,[2]; 313.15 K,1254 ± 2 kg/m3
same,surface tension liquid-gas,[2]; 323.15 K,46.61 ± 0.69 mN/m
same,viscosity,[2]; 323.15 K,6.15 ± 0.16 mPa·s
same,mass density,[2]; 323.15 K,1245.7 ± 2 kg/m3
same,surface tension liquid-gas,[2]; 333.15 K,45.74 ± 0.68 mN/m
same,viscosity,[2]; 333.15 K,4.4 ± 0.11 mPa·s
same,mass density,[2]; 333.15 K,1236.5 ± 2 kg/m3
same,surface tension liquid-gas,[2]; 343.15 K,45.16 ± 0.67 mN/m
same,viscosity,[2]; 343.15 K,3.57 ± 0.09 mPa·s
same,mass density,[2]; 343.15 K,1229 ± 2 kg/m3
O=S1(=O)CCCC1 [sulfolane] + O,mass density,"[1]; 303.15 K, 101 kPa, w1 = 0.0346",1003 ± 1.5 kg/m3
same,mass density,"[1]; 303.15 K, 101 kPa, w1 = 0.0487",1007 ± 1.5 kg/m3
same,mass density,"[1]; 303.15 K, 101 kPa, w1 = 0.0721",1012 ± 1.6 kg/m3
same,mass density,"[1]; 303.15 K, 101 kPa, w1 = 0.1022",1020 ± 1.6 kg/m3
same,mass density,"[1]; 303.15 K, 101 kPa, w1 = 0.1635",1038 ± 12 kg/m3
same,viscosity,"[1]; 303.15 K, 101 kPa, w1 = 0.0346",0.84 ± 0.023 mPa·s
same,viscosity,"[1]; 303.15 K, 101 kPa, w1 = 0.0487",0.85 ± 0.025 mPa·s
same,viscosity,"[1]; 303.15 K, 101 kPa, w1 = 0.0721",0.88 ± 0.023 mPa·s
same,viscosity,"[1]; 303.15 K, 101 kPa, w1 = 0.1022",0.92 ± 0.024 mPa·s
same,viscosity,"[1]; 303.15 K, 101 kPa, w1 = 0.1635",1.02 ± 0.027 mPa·s
same,mass density,"[1]; 313.15 K, 101 kPa, w1 = 0.0346",999.7 ± 4.6 kg/m3
same,mass density,"[1]; 313.15 K, 101 kPa, w1 = 0.0487",1003 ± 1.5 kg/m3
same,mass density,"[1]; 313.15 K, 101 kPa, w1 = 0.0721",1007 ± 1.5 kg/m3
same,mass density,"[1]; 313.15 K, 101 kPa, w1 = 0.1022",1016 ± 1.6 kg/m3
same,mass density,"[1]; 313.15 K, 101 kPa, w1 = 0.1635",1032 ± 1.6 kg/m3
same,viscosity,"[1]; 313.15 K, 101 kPa, w1 = 0.0346",0.69 ± 0.019 mPa·s
same,viscosity,"[1]; 313.15 K, 101 kPa, w1 = 0.0487",0.7 ± 0.023 mPa·s
same,viscosity,"[1]; 313.15 K, 101 kPa, w1 = 0.0721",0.73 ± 0.02 mPa·s
same,viscosity,"[1]; 313.15 K, 101 kPa, w1 = 0.1022",0.76 ± 0.021 mPa·s
same,viscosity,"[1]; 313.15 K, 101 kPa, w1 = 0.1635",0.84 ± 0.023 mPa·s
same,mass density,"[1]; 323.15 K, 101 kPa, w1 = 0.0346",995.2 ± 3.4 kg/m3
same,mass density,"[1]; 323.15 K, 101 kPa, w1 = 0.0487",998.2 ± 1.5 kg/m3
same,mass density,"[1]; 323.15 K, 101 kPa, w1 = 0.0721",1003 ± 1.5 kg/m3
same,mass density,"[1]; 323.15 K, 101 kPa, w1 = 0.1022",1010 ± 1.6 kg/m3
same,mass density,"[1]; 323.15 K, 101 kPa, w1 = 0.1635",1026 ± 1.6 kg/m3
same,viscosity,"[1]; 323.15 K, 101 kPa, w1 = 0.0346",0.58 ± 0.016 mPa·s
same,viscosity,"[1]; 323.15 K, 101 kPa, w1 = 0.0487",0.59 ± 0.023 mPa·s
same,viscosity,"[1]; 323.15 K, 101 kPa, w1 = 0.0721",0.61 ± 0.017 mPa·s
same,viscosity,"[1]; 323.15 K, 101 kPa, w1 = 0.1022",0.64 ± 0.018 mPa·s
same,viscosity,"[1]; 323.15 K, 101 kPa, w1 = 0.1635",0.71 ± 0.019 mPa·s
same,mass density,"[1]; 333.15 K, 101 kPa, w1 = 0.0346",990.1 ± 3.8 kg/m3
same,mass density,"[1]; 333.15 K, 101 kPa, w1 = 0.0487",993 ± 1.6 kg/m3
same,mass density,"[1]; 333.15 K, 101 kPa, w1 = 0.0721",998.9 ± 1.6 kg/m3
same,mass density,"[1]; 333.15 K, 101 kPa, w1 = 0.1022",1005 ± 3.6 kg/m3
same,mass density,"[1]; 333.15 K, 101 kPa, w1 = 0.1635",1020 ± 1.7 kg/m3
same,viscosity,"[1]; 333.15 K, 101 kPa, w1 = 0.0346",0.49 ± 0.014 mPa·s
same,viscosity,"[1]; 333.15 K, 101 kPa, w1 = 0.0487",0.5 ± 0.029 mPa·s
same,viscosity,"[1]; 333.15 K, 101 kPa, w1 = 0.0721",0.52 ± 0.015 mPa·s
same,viscosity,"[1]; 333.15 K, 101 kPa, w1 = 0.1022",0.55 ± 0.016 mPa·s
same,viscosity,"[1]; 333.15 K, 101 kPa, w1 = 0.1635",0.61 ± 0.017 mPa·s
same,mass density,"[1]; 343.15 K, 101 kPa, w1 = 0.0346",984.3 ± 2.5 kg/m3
same,mass density,"[1]; 343.15 K, 101 kPa, w1 = 0.0487",987 ± 7 kg/m3
same,mass density,"[1]; 343.15 K, 101 kPa, w1 = 0.0721",991.7 ± 2.1 kg/m3
same,mass density,"[1]; 343.15 K, 101 kPa, w1 = 0.1022",998 ± 2.3 kg/m3
same,mass density,"[1]; 343.15 K, 101 kPa, w1 = 0.1635",1012 ± 2.5 kg/m3
same,viscosity,"[1]; 343.15 K, 101 kPa, w1 = 0.0346",0.43 ± 0.013 mPa·s
same,viscosity,"[1]; 343.15 K, 101 kPa, w1 = 0.0487",0.44 ± 0.013 mPa·s
same,viscosity,"[1]; 343.15 K, 101 kPa, w1 = 0.0721",0.45 ± 0.013 mPa·s
same,viscosity,"[1]; 343.15 K, 101 kPa, w1 = 0.1022",0.48 ± 0.014 mPa·s
same,viscosity,"[1]; 343.15 K, 101 kPa, w1 = 0.1635",0.54 ± 0.015 mPa·s
OCCN(CCO)CCO [triethanolamine],surface tension liquid-gas,[2]; 303.15 K,45.13 ± 0.67 mN/m
same,viscosity,[2]; 303.15 K,405.6 ± 17 mPa·s
same,mass density,[2]; 303.15 K,1119.6 ± 2.6 kg/m3
same,surface tension liquid-gas,[2]; 313.15 K,43.54 ± 0.65 mN/m
same,viscosity,[2]; 313.15 K,208.6 ± 7.4 mPa·s
same,mass density,[2]; 313.15 K,1113.8 ± 2.6 kg/m3
same,surface tension liquid-gas,[2]; 323.15 K,41.85 ± 0.63 mN/m
same,viscosity,[2]; 323.15 K,116 ± 3.5 mPa·s
same,mass density,[2]; 323.15 K,1107.9 ± 2.6 kg/m3
same,surface tension liquid-gas,[2]; 333.15 K,40.04 ± 0.6 mN/m
same,viscosity,[2]; 333.15 K,64.55 ± 1.8 mPa·s
same,mass density,[2]; 333.15 K,1102 ± 2.6 kg/m3
same,surface tension liquid-gas,[2]; 343.15 K,38.11 ± 0.57 mN/m
same,viscosity,[2]; 343.15 K,38.79 ± 1.1 mPa·s
same,mass density,[2]; 343.15 K,1096.2 ± 2.6 kg/m3
OCCN(CCO)CCO [triethanolamine] + O,surface tension liquid-gas,"[1]; 303.15 K, w1 = 0.4227",54.5 ± 0.89 mN/m
same,viscosity,"[1]; 303.15 K, 101 kPa, w1 = 0.4227",4.13 ± 0.1 mPa·s
same,mass density,"[1]; 303.15 K, 101.3 kPa, w1 = 0.4227",1052 ± 1.6 kg/m3
same,surface tension liquid-gas,"[1]; 313.15 K, w1 = 0.4227",53.8 ± 0.75 mN/m
same,viscosity,"[1]; 313.15 K, 101 kPa, w1 = 0.4227",2.91 ± 0.075 mPa·s
same,mass density,"[1]; 313.15 K, 101.3 kPa, w1 = 0.4227",1048 ± 1.6 kg/m3
same,surface tension liquid-gas,"[1]; 323.15 K, w1 = 0.4227",53 ± 0.74 mN/m
same,viscosity,"[1]; 323.15 K, 101 kPa, w1 = 0.4227",2.16 ± 0.055 mPa·s
same,mass density,"[1]; 323.15 K, 101.3 kPa, w1 = 0.4227",1043 ± 1.6 kg/m3
same,surface tension liquid-gas,"[1]; 333.15 K, w1 = 0.4227",52.3 ± 0.88 mN/m
same,viscosity,"[1]; 333.15 K, 101 kPa, w1 = 0.4227",1.67 ± 0.043 mPa·s
same,mass density,"[1]; 333.15 K, 101.3 kPa, w1 = 0.4227",1037 ± 2.6 kg/m3
same,surface tension liquid-gas,"[1]; 343.15 K, w1 = 0.4227",51.4 ± 0.72 mN/m
same,viscosity,"[1]; 343.15 K, 101 kPa, w1 = 0.4227",1.36 ± 0.035 mPa·s
same,mass density,"[1]; 343.15 K, 101.3 kPa, w1 = 0.4227",1032 ± 1.6 kg/m3
